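Exposure lasted 48 hours, with cells grown in 96-well plates and compounds tested at five concentrations. At the GI50, growth is halved. TGI denotes the concentration required for complete inhibition of growth.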
Assays:
Assay in all cases: DTP human tumour cell line panel, 48 h
M19-MEL melanoma = tested on: M19-MEL melanoma
RPMI-8226 leukemia = tested on: RPMI-8226 leukemia
SN12C renal = tested on: SN12C renal
CAKI-1 renal = tested on: CAKI-1 renal
RXF-631 renal = tested on: RXF-631 renal
SK-MEL-5 melanoma = tested on: SK-MEL-5 melanoma
XF 498 CNS = tested on: XF 498 CNS
SNB-19 CNS = tested on: SNB-19 CNS
COLO 205 colon = tested on: COLO 205 colon
UACC-257 melanoma = tested on: UACC-257 melanoma
SF-295 CNS = tested on: SF-295 CNS
HT29 colon = tested on: HT29 colon
OVCAR-4 ovarian = tested on: OVCAR-4 ovarian
ACHN renal = tested on: ACHN renal
UACC-62 melanoma = tested on: UACC-62 melanoma
HOP-62 NSCLC = tested on: HOP-62 NSCLC
RXF 393 renal = tested on: RXF 393 renal
HOP-92 NSCLC = tested on: HOP-92 NSCLC
U251 CNS = tested on: U251 CNS
NCI-H460 lung = tested on: NCI-H460 lung
SK-MEL-2 melanoma = tested on: SK-MEL-2 melanoma
SNB-78 CNS = tested on: SNB-78 CNS
SW-620 colon = tested on: SW-620 colon
CCRF-CEM leukemia = tested on: CCRF-CEM leukemia
SF-539 CNS = tested on: SF-539 CNS
SK-MEL-28 melanoma = tested on: SK-MEL-28 melanoma
NCI-H226 lung = tested on: NCI-H226 lung
A498 renal = tested on: A498 renal
HCC-2998 colon = tested on: HCC-2998 colon
OVCAR-5 ovarian = tested on: OVCAR-5 ovarian
OVCAR-3 ovarian = tested on: OVCAR-3 ovarian
SR leukemia = tested on: SR leukemia
OVCAR-8 ovarian = tested on: OVCAR-8 ovarian
EKVX NSCLC = tested on: EKVX NSCLC
A549 NSCLC = tested on: A549 NSCLC
KM12 colon = tested on: KM12 colon
LOX IMVI melanoma = tested on: LOX IMVI melanoma
KM20L2 colon = tested on: KM20L2 colon
DMS 114 small cell lung = tested on: DMS 114 small cell lung
DLD-1 colon = tested on: DLD-1 colon
NCI-H522 lung = tested on: NCI-H522 lung
MALME-3M melanoma = tested on: MALME-3M melanoma
NCI-H23 lung = tested on: NCI-H23 lung
SK-OV-3 ovarian = tested on: SK-OV-3 ovarian
HCT-116 colon = tested on: HCT-116 colon
HL-60(TB) leukemia = tested on: HL-60(TB) leukemia
HCT-15 colon = tested on: HCT-15 colon
LXFL 529 NSCLC = tested on: LXFL 529 NSCLC
MOLT-4 leukemia = tested on: MOLT-4 leukemia
M14 melanoma = tested on: M14 melanoma
DMS 273 small cell lung = tested on: DMS 273 small cell lung
UO-31 renal = tested on: UO-31 renal
K-562 leukemia = tested on: K-562 leukemia
786-0 renal = tested on: 786-0 renal
IGROV1 ovarian = tested on: IGROV1 ovarian
TK-10 renal = tested on: TK-10 renal
SNB-75 CNS = tested on: SNB-75 CNS

CCC[CH2][Sn]1([CH2]CCC)[O]CC(c2ccccn2)C[O]1 was tested, and the GI50 (M19-MEL melanoma) was 14.8 µM, the TGI (M19-MEL melanoma) was 29.2 µM and the GI50 (RPMI-8226 leukemia) was 7.2 µM. For the same molecule, the TGI (RPMI-8226 leukemia) was 34.5 µM, the GI50 (SN12C renal) was 19.8 µM and the TGI (SN12C renal) was 35.3 µM. It also gave a GI50 (CAKI-1 renal) of 7.39 µM, a TGI (CAKI-1 renal) of 22.1 µM and a GI50 (RXF-631 renal) of 15.4 µM. For the same molecule, the TGI (RXF-631 renal) was 29.5 µM, the GI50 (SK-MEL-5 melanoma) was 17 µM and the TGI (SK-MEL-5 melanoma) was 34.4 µM. For the same molecule, the GI50 (XF 498 CNS) was 17.9 µM, the TGI (XF 498 CNS) was 32.7 µM and the GI50 (SNB-19 CNS) was 22.1 µM. For the same molecule, the TGI (SNB-19 CNS) was 45 µM, the GI50 (COLO 205 colon) was 17.5 µM and the TGI (COLO 205 colon) was 31.7 µM. For the same molecule, the GI50 (UACC-257 melanoma) was 17.3 µM, the TGI (UACC-257 melanoma) was 32.4 µM and the GI50 (SF-295 CNS) was 20.3 µM. The TGI (SF-295 CNS) was 38.1 µM, the GI50 (HT29 colon) was 20.5 µM and the TGI (HT29 colon) was 38.3 µM. It also gave a GI50 (OVCAR-4 ovarian) of 20.7 µM, a TGI (OVCAR-4 ovarian) of 37.9 µM and a GI50 (ACHN renal) of 19.8 µM. For the same molecule, the TGI (ACHN renal) was 34 µM, the GI50 (UACC-62 melanoma) was 14.1 µM and the TGI (UACC-62 melanoma) was 28 µM. For the same molecule, the GI50 (HOP-62 NSCLC) was 23.3 µM, the TGI (HOP-62 NSCLC) was 68.6 µM and the GI50 (RXF 393 renal) was 19.5 µM. It also gave a TGI (RXF 393 renal) of 36.7 µM, a GI50 (HOP-92 NSCLC) of 18.2 µM and a TGI (HOP-92 NSCLC) of 36.6 µM. For the same molecule, the GI50 (U251 CNS) was 15.9 µM, the TGI (U251 CNS) was 29.6 µM and the GI50 (NCI-H460 lung) was 33.5 µM. The TGI (NCI-H460 lung) was over 100 µM, the GI50 (SK-MEL-2 melanoma) was 14 µM and the TGI (SK-MEL-2 melanoma) was 28.5 µM. It also gave a GI50 (SNB-78 CNS) of 19.9 µM, a TGI (SNB-78 CNS) of 61.3 µM and a GI50 (SW-620 colon) of 15.3 µM. The TGI (SW-620 colon) was 29.5 µM, the GI50 (CCRF-CEM leukemia) was 4.13 µM and the TGI (CCRF-CEM leukemia) was 34.8 µM. It also gave a GI50 (SF-539 CNS) of 18.6 µM, a TGI (SF-539 CNS) of 33.1 µM and a GI50 (SK-MEL-28 melanoma) of 15.4 µM. It also gave a TGI (SK-MEL-28 melanoma) of 29.4 µM, a GI50 (NCI-H226 lung) of 31 µM and a TGI (NCI-H226 lung) of over 100 µM. It also gave a GI50 (A498 renal) of 26.7 µM, a TGI (A498 renal) of 50.7 µM and a GI50 (HCC-2998 colon) of 19.4 µM. It also gave a TGI (HCC-2998 colon) of 34.3 µM, a GI50 (OVCAR-5 ovarian) of 21.3 µM and a TGI (OVCAR-5 ovarian) of 42.6 µM. The GI50 (OVCAR-3 ovarian) was 16.7 µM, the TGI (OVCAR-3 ovarian) was 30.5 µM and the GI50 (SR leukemia) was 12.4 µM. For the same molecule, the TGI (SR leukemia) was 41.7 µM, the GI50 (OVCAR-8 ovarian) was 17.9 µM and the TGI (OVCAR-8 ovarian) was 36.8 µM. It also gave a GI50 (EKVX NSCLC) of 15.5 µM, a TGI (EKVX NSCLC) of 36.2 µM and a GI50 (A549 NSCLC) of 32.1 µM. It also gave a TGI (A549 NSCLC) of over 100 µM, a GI50 (KM12 colon) of 23.2 µM and a TGI (KM12 colon) of 59.4 µM. For the same molecule, the GI50 (LOX IMVI melanoma) was 13.7 µM, the TGI (LOX IMVI melanoma) was 27.7 µM and the GI50 (KM20L2 colon) was 29.6 µM. It also gave a TGI (KM20L2 colon) of 73.3 µM, a GI50 (DMS 114 small cell lung) of 10.2 µM and a TGI (DMS 114 small cell lung) of 26.7 µM. It also gave a GI50 (DLD-1 colon) of 15.3 µM, a TGI (DLD-1 colon) of 29.8 µM and a GI50 (NCI-H522 lung) of 3.14 µM. It also gave a TGI (NCI-H522 lung) of 11.8 µM, a GI50 (MALME-3M melanoma) of 7.93 µM and a TGI (MALME-3M melanoma) of 19.8 µM. For the same molecule, the GI50 (NCI-H23 lung) was 17.1 µM, the TGI (NCI-H23 lung) was 35.3 µM and the GI50 (SK-OV-3 ovarian) was 24.4 µM. It also gave a TGI (SK-OV-3 ovarian) of 84.8 µM, a GI50 (HCT-116 colon) of 19.3 µM and a TGI (HCT-116 colon) of 33.7 µM. The GI50 (HL-60(TB) leukemia) was 7.65 µM, the TGI (HL-60(TB) leukemia) was 29.4 µM and the GI50 (HCT-15 colon) was 18.2 µM. It also gave a TGI (HCT-15 colon) of 32.6 µM, a GI50 (LXFL 529 NSCLC) of 7.96 µM and a TGI (LXFL 529 NSCLC) of 20.5 µM. For the same molecule, the GI50 (MOLT-4 leukemia) was 17.2 µM, the TGI (MOLT-4 leukemia) was 56 µM and the GI50 (M14 melanoma) was 16.2 µM. For the same molecule, the TGI (M14 melanoma) was 30.7 µM, the GI50 (DMS 273 small cell lung) was 15.7 µM and the TGI (DMS 273 small cell lung) was 29.6 µM. It also gave a GI50 (UO-31 renal) of 19.4 µM, a TGI (UO-31 renal) of 35.5 µM and a GI50 (K-562 leukemia) of 14.6 µM. The TGI (K-562 leukemia) was 65.8 µM, the GI50 (786-0 renal) was 15.6 µM and the TGI (786-0 renal) was 29.3 µM. For the same molecule, the GI50 (IGROV1 ovarian) was 20.2 µM, the TGI (IGROV1 ovarian) was 36.6 µM and the GI50 (TK-10 renal) was 18.9 µM. The TGI (TK-10 renal) was 33.3 µM, the GI50 (SNB-75 CNS) was 22.5 µM and the TGI (SNB-75 CNS) was 58 µM.

Reference: PubChem BioAssay (NCI)
